From ChEMBL document CHEMBL1133636, “Discovery of (2S)-1-(4-amino-2,3,5- trimethylphenoxy)-3-[4-[4-(4- fluorobenzyl)phenyl]-1-piperazinyl]-2-propanol dimethanesulfonate (SUN N8075): a dual Na(+) and Ca(2+) channel blocker with antioxidant activity” (J Med Chem, 2000)

Tests used:
[1] = Inhibition of low-threshold (T-type) Calcium [Ca2+] currents in primary cultured rat cerebrocortical neurons using whole-cell voltage-clamp recording technique; assay type: functional
[2] = species on record: Rattus norvegicus; assay: Concentration required for 50% inhibitory effect on automatic oxidation in plasma membrane of rat brain homogenates by measuring malondialdehyde and 4-hydroxyalkenals using peroxidized lipid colorimetric assay kit; assay type: functional
[3] = Tested for anticonvulsant effects on audiogenic seizures in DBA/2 mice; administered intra peritonealy; assay type: functional; conditions: Mus musculus
[4] = target: D(2) dopamine receptor (Rattus norvegicus, UniProt P61169); assay: Concentration required for 50% inhibitory effect on Dopamine receptor D2 determined in competition experiments with [3H]raclopride
D(2) dopamine receptor, sequence (P61169 whole entry): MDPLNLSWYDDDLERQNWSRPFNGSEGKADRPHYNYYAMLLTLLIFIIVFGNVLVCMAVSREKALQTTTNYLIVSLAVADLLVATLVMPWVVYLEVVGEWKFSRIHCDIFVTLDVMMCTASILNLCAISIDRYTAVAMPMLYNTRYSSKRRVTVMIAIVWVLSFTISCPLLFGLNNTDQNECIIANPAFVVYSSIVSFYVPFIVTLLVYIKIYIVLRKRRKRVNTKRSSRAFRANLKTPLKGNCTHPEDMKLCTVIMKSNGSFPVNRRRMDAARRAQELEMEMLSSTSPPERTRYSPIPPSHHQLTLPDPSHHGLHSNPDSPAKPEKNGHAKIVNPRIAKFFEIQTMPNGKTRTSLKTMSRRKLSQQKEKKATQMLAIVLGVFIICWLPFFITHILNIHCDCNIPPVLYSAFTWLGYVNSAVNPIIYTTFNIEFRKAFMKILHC

[5] = target: Sodium channel alpha subunits; brain (Types I, II, III) (Rattus norvegicus, UniProt P04775+P04774+P08104); assay: Inhibition of veratridine-induced depolarization of rat cerebrocortical synaptosomes using a membrane potential sensitive fluorescent dye, rhodamine 6G; assay type: functional, subcellular
[6] = species on record: Rattus norvegicus; assay: Concentration required for 50% inhibitory effect on automatic oxidation in plasma membrane of rat brain homogenates by measuring malondialdehyde and 4-hydroxyalkenals using peroxidized lipid colorimetric assay kit.; assay type: functional

CS(=O)(=O)O.CS(=O)(=O)O.Cc1cc(OC[C@@H](O)CN2CCN(c3ccc(Cc4ccc(F)cc4)cc3)CC2)c(C)c(C)c1N showed an IC50 [1] of 2000 nM, an IC50 [2] of 310 nM and an ED50 [3] of 6.5 mg/kg. For the same molecule, the IC50 [4] was > 10000 nM and the IC50 [5] was 420 nM.

With Fc1ccc(C(c2ccc(F)cc2)N2CCN(C/C=C/c3ccccc3)CC2)cc1 [FLUNARIZINE] the IC50 [1] was 2200 nM and the ED50 [3] was 11.4 mg/kg.

In the case of Cc1c(C)c2c(c(C)c1O)CC[C@@](C)(CCC[C@H](C)CCC[C@H](C)CCCC(C)C)O2 [ALPHA-TOCOPHEROL], the IC50 [6] is reported as > 100000 nM.

For CC(C)c1ccc(CN2CCN(C(c3ccc(F)cc3)c3ccc(F)cc3)CC2)c(=O)c(NCCO)c1, the IC50 [1] was 300 nM, the IC50 [2] was 20000 nM and the ED50 [3] was 14.5 mg/kg. For the same molecule, the IC50 [4] was 1690 nM and the IC50 [5] was 360 nM.
